Measured values taken from article PMC7948490, “Mechanochemical properties of human myosin-1C are modulated by isoform-specific differences in the N-terminal extension” (The Journal of Biological Chemistry, 2020).

Key:
[1] = molecular target: T1, Myo1C^35-ΔTH1 (acto·Myo1C^35-ΔTH1) (Homo sapiens, UniProt O00159); assay: stopped-flow, ADP inhibition of ATP-induced dissociation from pyrene-labeled F-actin, slow-phase amplitude fraction; format: binding
T1 construct: 35-residue N-terminal extension + motor domain + 3 IQ motifs + post-IQ; C-terminal 176-residue TH1 domain replaced by C-terminal octa-histidine tag; coproduced with human calmodulin in baculovirus/Sf9; with Calmodulin-1; Actin, alpha skeletal muscle (Gallus gallus, chicken pectoralis major muscle F-actin, pyrene-labeled)
T1 sequence (O00159 1-887, stated change not applied): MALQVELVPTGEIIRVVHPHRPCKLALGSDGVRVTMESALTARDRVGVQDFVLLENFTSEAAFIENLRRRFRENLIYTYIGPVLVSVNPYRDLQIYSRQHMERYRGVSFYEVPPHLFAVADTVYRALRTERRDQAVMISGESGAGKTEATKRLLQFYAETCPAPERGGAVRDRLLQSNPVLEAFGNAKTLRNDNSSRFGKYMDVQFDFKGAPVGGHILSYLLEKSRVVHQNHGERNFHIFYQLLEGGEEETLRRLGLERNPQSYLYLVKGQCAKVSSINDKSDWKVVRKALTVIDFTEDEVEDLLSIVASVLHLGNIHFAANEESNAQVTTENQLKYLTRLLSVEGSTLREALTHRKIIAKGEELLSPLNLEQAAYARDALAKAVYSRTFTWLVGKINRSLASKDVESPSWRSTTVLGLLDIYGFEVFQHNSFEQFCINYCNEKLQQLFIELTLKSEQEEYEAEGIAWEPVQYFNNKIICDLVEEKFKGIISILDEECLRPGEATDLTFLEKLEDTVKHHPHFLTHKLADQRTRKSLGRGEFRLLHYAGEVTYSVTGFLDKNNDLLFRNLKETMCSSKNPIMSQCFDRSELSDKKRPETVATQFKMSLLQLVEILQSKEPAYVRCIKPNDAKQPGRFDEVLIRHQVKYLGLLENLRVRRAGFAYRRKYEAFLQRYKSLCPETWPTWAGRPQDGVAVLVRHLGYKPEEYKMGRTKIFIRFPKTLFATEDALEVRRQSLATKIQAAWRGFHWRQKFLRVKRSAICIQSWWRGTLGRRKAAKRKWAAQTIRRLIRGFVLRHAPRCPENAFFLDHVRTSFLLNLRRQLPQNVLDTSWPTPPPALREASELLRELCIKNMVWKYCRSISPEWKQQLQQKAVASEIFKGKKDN
Text: stopped-flow, ADP inhibition of ATP-induced dissociation from pyrene-labeled F-actin, slow-phase amplitude fraction on Myo1C^35-ΔTH1 (acto·Myo1C^35-ΔTH1)

[2] = molecular target: T1, Myo1C^35-ΔTH1 (acto·Myo1C^35-ΔTH1); assay: stopped-flow, ATP-induced dissociation from pyrene-labeled F-actin, fast phase; format: binding
Text: stopped-flow, ATP-induced dissociation from pyrene-labeled F-actin, fast phase on Myo1C^35-ΔTH1 (acto·Myo1C^35-ΔTH1)

| SMILES | Kd [1] [µM] | Kd [2] [µM] |
| --- | --- | --- |
| Nc1ncnc2c1ncn2[C@@H]1O[C@H](COP(=O)(O)OP(=O)(O)O)[C@@H](O)[C@H]1O [ADP] | 0.23 ± 0.03 | – |
| Nc1ncnc2c1ncn2[C@@H]1O[C@H](COP(=O)(O)OP(=O)(O)OP(=O)(O)O)[C@@H](O)[C@H]1O [ATP] | – | 405 ± 79 |
